From patent US20080318892A1, “METHODS AND FORMULATIONS FOR PROTECTING CELLS, AND FOR TREATING DISEASES AND CONDITIONS BY OPTIMIZING THE INTRACELLULAR CONCENTRATION OF NAD” (priority 2007, published 2008)

Tests used:
SIRT1 = SIRT1 deacetylase activity in live SMCs (Fluor de Lys-SIRT1 substrate, TSA-independent); assay type: cell-based, human; conditions: SMCs overexpressing Nampt; p=0.03, n=4
Method: In vivo assessment of SIRT1 deacetylase activity. Cell-based assessment of SIRT1-like enzymatic activity was performed using the Fluor de lys-SIRT1 substrate (Biomol, Plymouth Meeting, Pa.), as previously described (de Boer, 2006). SMCs in phenol-red free M199 with 5% FBS were incubated for 2 h with 5 μM TSA followed by addition of the fluorogenic substrate for 4 h. Signal was quantified by spectrofluorimetry (Wallac, Wellesley, Mass.) and normalized to total protein content.
Assessment of SIRT1 Deacetylase Activity. SIRT1 deacetylase activity was quantified in live cells as previously reported (de Boer et al, 2006). SMCs cultured in phenol red-free M199 were incubated without serum for 2 h with 1 μM trichostatin A (Sigma, St. Louis, Mo., USA) followed by addition of 25 μM Fluor-de-Lys-SIRT1 fluorogenic substrate (Biomol, Plymouth Meeting, Pa., USA) for 4 h. Media containing fluorogenic substrate and reaction product was incubated with an equal volume of SIRT1 assay buffer containing 2 mM nicotinamide and developer (Biomol, Plymouth Meeting, Pa., USA). Signal was quantified by spectrofluorometry (Wallac VICTOR-1420, PerkinElmer Life Science, Waltham, Mass., USA) and normalized to total protein content

[1] = system: human aortic endothelial cells; assay: Longevity and genomic stability (tetraploidy) of human aortic endothelial cells under glucose stress; assay type: cell-based; conditions: for longevity: cells overexpressing NamPT
Description: Generation of Nampt-overexpressing HAEC populations. HAEC were infected with retrovirus encoding an eGFP-Nampt fusion protein. A control population was infected with eGFP alone. Transduced HAEC were FACS selected for low (eGFP-Namptlo) and high (eGFP-Nampthi) levels of transgene expression based on GFP fluorescence. Control cells were selected to achieve eGFP expression (eGFP+) at a level similar to the eGFP-Namptlo cells. Levels of GFP fluorescence were confirmed by microscopy.
Assessment of longevity and genomic stability. Triplicate cell populations were plated at 1000 cells/cm2 and were serially subcultured at 80% confluence until growth curves reached plateau. Population doublings were calculated using the standard formula. At certain time points cells were harvested, fixed, and DNA content was analyzed. Tetraploid cells were counted as a proportion of the total population using ModFit software.

[2] = system: microvessels invested by human SMC's; assay: Human-mouse chimeric angiogenesis in vivo (matrigel implants); design: species or system SCID mice; conditions: matrigel implants with PBEF-overexpressing SMC's, 8 days; p<0.05 vs vector
Method: Human-Mouse Chimeric Angiogenesis in vivo was measured. HITC6 SMCs in M199 with 10% FBS and fibroblast growth factor-2 (FGF-2) were mixed with an equal volume of growth factor-reduced matrigel (BD Discovery Labware) yielding final concentrations of 5×10^5 cells/ml and 250 ng/ml FGF-2. The cell-matrigel suspension (500 μl) was subcutaneously injected into the abdomen of mice with severe combined immunodeficiency syndrome (SCID). After 8 days, implants were harvested, fixed for 8 h in Tris-buffered zinc (32), and paraffin-embedded tissues were sectioned at 5 μm. […] Tissue was then incubated with rabbit anti-GFP (1:200, BD Clontech, Palo Alto, Calif.) and bound primary antibody detected with alkaline phosphatase-conjugated goat anti-rabbit secondary antibody and visualized with red alkaline phosphatase substrate (Vector). […]
Human-Mouse Chimeric Angiogenesis in vivo was measured. […] Tissue was then incubated with rabbit anti-GFP (1:200, BD Clontech, Palo Alto, Calif.) and bound primary antibody detected with alkaline phosphatase-conjugated goat anti-rabbit secondary antibody and visualized with red alkaline phosphatase substrate (Vector). […]

HITC6 SMCs = assay: Senescence-associated beta-galactosidase activity / senescence-free survival; assay type: cell-based, human
Method: Senescence-associated β-Galatosidase Activity Assay. SMCs on glass coverslips at approximately 70% confluence were fixed in 2% formaldehyde/0.2% glutaraldehyde in PBS for 3 minutes and incubated with X-gal-containing reaction mixture, as previously described (Dimri, 1995). Washed cells were stained with Hoechst 33258 (2.5 μg/ml) and the proportion of senescence-associated β-galactosidase (SA β-Gal)-positive cells quantified from 10 microscope fields of view (Olympus BX51, ×20 objective, approximately 1200 cells). Senescence-free survival was determined using Kaplan-Meier analysis of survival vs. replicative age.
Senescence-associated Beta-galactosidase Activity. Senescence-associated beta-galactosidase (SA-β-gal) activity was determined as previously described (Dimri et al, 1995). Briefly, SMCs were fixed in PBS containing 2% formaldehyde/0.2% glutaraldehyde for 3 min at room temperature. Fixed cells were then incubated for 4-6 h at 37° C. with SA-β-gal stain solution containing 150 mM NaCl, 2 mM MgCl, 40 mM citrate, 5 mM potassium ferrocyanide, 5 mM potassium ferricyanide, and 1 mg/ml of 5-bromo-4-chloro-3-indolyl-β-D-galactopyranoside (X-gal) (Invitrogen, Carlsbad, Calif., USA), at pH 6.0. SMCs were counterstained with 2.5 μg/ml Hoechst 33258 to detect cell nuclei. The proportion of SA-β-gal activity positive cells was quantified using light and fluorescence microscopy (Olympus BX51, Center Valley, Pa., USA).

Substance: PBEF: 52-55 kD protein, rate-limiting enzyme for NAD+ biosynthesis from nicotinamide; tested by retroviral cDNA overexpression in cells
- increase in SIRT1 activity (SIRT1): 86±4%
- age- or high glucose-induced tetraploidy ([1]; Nampt overexpressing cells): no occurrence
- longevity ([1]; glucose stress (30 mM glucose)): significantly augmented longevity
- longevity ([1]; normal glucose (5 mM)): mildly improved longevity
- proportion of microvessels invested by one or more human SMC's [2]: 17.8±2.5%
- senescence-free survival (Kaplan-Meier) vs vector-infected cells (HITC6 SMCs; PBEF-overexpressing SMCs, p<0.0001): markedly extended
- reduction in senescent SMCs (HITC6 SMCs; late-passage (37th) PBEF-overexpressing SMCs, p=0.003): 19±2%
